{"source": "paper PMC3884839", "about": "“Pharmacokinetics and pharmacodynamics utilizing unbound target tissue exposure as part of a disposition-based rationale for lead optimization of benzoxaboroles in the treatment of Stage 2 Human African Trypanosomiasis” (Parasitology, 2013)", "key": {"[1]": {"test_system": "T. b. brucei (TREU 667)", "experiment": "Murine model of Stage 2 (CNS) HAT", "format": "in vivo, mouse", "description": "The efficacy of benzoxaboroles was evaluated in a murine model of Stage 2 (CNS) HAT (Nare et al. [2010]; Jacobs et al. [2011]). In summary, mice (n = 10 per group) were infected by bolus i.p. injection of 1×10^4 T. b. brucei (TREU 667) parasites. A single bolus i.p. dose (10 mg kg^-1) of berenil (Sigma-Aldrich, St. Louis, MO) was administered on day 4 as a positive treatment control for haemolymphatic-stage infection. Infection of the remaining animals proceeded for 21 days to establish a CNS infection before treatment with either a single dose of berenil (as above) or test compounds by the oral route either once or twice daily over 7 days at the doses indicated below. Animals were checked at least weekly for parasitaemia and were immediately removed from cages and euthanized upon recrudescence. Animals were considered cured if they were […] for at least 180 days after treatment."}, "[2]": {"test_system": "T. b. brucei", "experiment": "In vitro reversibility of trypanocidal effects (transient exposure)", "format": "cell-based, Trypanosoma brucei brucei", "description": "The time and concentration dependency for oxaborole-mediated killing of T. b. brucei, under constant (time-kill) and transient (reversibility) drug-pressure, was determined as described previously (Nare et al. 2010).\nReversibility was assessed as the ability T. b. brucei parasites to recover from transient exposure (0–24 h) to test benzoxaboroles (0·02–10 μg mL^−1). Trypanosomes were seeded in clear 96-well ‘V’-bottom plates at a density of 1×10^5 parasites per well; one plate was prepared for each time-point. After the designated incubation time, each plate was removed from the incubator and centrifuged at 4400 g for 5 min to sediment parasites. The supernatant containing the test compound was aspirated and three washing cycles were performed where 100 μl of warmed HMI-9 media was added to each well and then aspirated. […] Thus, each concentration and time-point was evaluated in triplicate. Each plate was incubated for a further 72 h, whereupon, trypanocidal activity was determined using resazurin (Sigma-Aldrich, St. Louis, MO) where 20 μl of a 25 mg/100 mL stock in PBS was added, incubated for an additional 4–6 h and fluorescence measured using the EnVision plate reader (excitation wavelength, 530 nm and emission wavelength, 590 nm)."}, "[3]": {"test_system": "L929 mammalian cell line", "experiment": "L929 mammalian cell cytotoxicity / selectivity", "format": "cell-based"}, "[4]": {"experiment": "Unbound brain exposure (AUC0-24) in uninfected mice after once daily oral SCYX-7158", "format": "in vivo, mouse", "conditions": "12·5 mg kg^−1 once daily", "description": "The CNS disposition and pharmacokinetics of the benzoxaboroles were evaluated in infected and uninfected mice following oral administration. In vivo phases of single-dose rodent PK studies were performed at Vivisource (Waltham, MA) following Institutional Animal Care and Use Committee (IACUC) review in an Association for Assessment and Accreditation of Laboratory Animal Care International (AAALAC)-approved facility. Studies in Trypanosoma brucei brucei (TREU 667 strain) infected mice, or uninfected satellite animals, were performed after IACUC review at Pace University (NewYork, NY).\nMale CD-1 or female Swiss Webster mice (approximately 25 g) were administered test compounds by oral gavage either once (QD) or twice per day (Q12 h) with doses ranging between 6 and 100 mg kg^−1 as described below. All compounds were formulated as an in situ sodium salt in 2% (v/v) ethanol, 5% (m/v) dextrose, to yield typically clear colourless solutions that were administered at 4 mL kg^−1. Blood samples for pharmacokinetic studies were collected into polypropylene tubes containing K2EDTA anticoagulant and stored on wet ice until centrifuged and processed to plasma. Plasma was stored at −80 °C. Blood samples from mice were collected via cardiac puncture under terminal anaesthesia. Rodents were euthanized in a CO2 chamber before collection of terminal blood or tissue samples. Brain tissues were blotted dry and stored at approximately −80 °C.\nPharmacokinetic studies were performed in CD-1 mice to establish AUC0–24 following single and 7×once daily oral doses of 6·25, 12·5, 25, 50 and 100 mg kg^−1 SCYX-7158 (Jacobs et al. [2011]). […] Values for unbound AUC0–24 in brain were calculated using the single and steady-state exposure data (non-parametric super-positioning indicated steady-state was mostly attained on day 2 so day 7 data were employed for days 2–7 rather than modelled data for days 2–6) and compared to the target unbound AUC from the in vitro reversibility studies (Fig. 9)."}, "[5]": {"conditions": "6·25 mg kg^−1 day^−1 oral for 7 days"}}}
{"smiles": "CC1(C)OB(O)c2cc(NC(=O)c3ccc(F)cc3C(F)(F)F)ccc21", "note": "[SCYX-7158]", "values": [{"measurement": "cure outcome", "setting": "[1]; 50 mg kg^−1, single oral dose", "value": "No animals were cured"}, {"measurement": "cure rate", "setting": "[1]; 50 mg kg^−1 oral, ⩾3 days of dosing", "value": 100, "unit": "%"}, {"measurement": "day of recrudescence of parasitaemia after infection", "setting": "[1]; [5]", "value": "~35", "unit": "days"}, {"measurement": "treatment outcome", "setting": "[1]; [5]", "value": "cleared of haemolymphatic T. b. brucei but demonstrated recrudescence of parasitaemia"}, {"measurement": "cure rate", "setting": "[1]; 12·5 mg kg^−1 oral once daily for 7 days", "value": 80, "unit": "%"}, {"measurement": "cure outcome", "setting": "[1]; ⩾25 mg kg^−1 day^−1 oral for 7 days", "value": "complete cures"}, {"measurement": "reduction in survival relative to untreated control parasites", "setting": "[2]; Cu 0·123 μg mL^−1 (Ct 0·313 μg mL^−1), 24 h incubation", "value": 24, "unit": "%"}, {"measurement": "exposure time tolerated without impact on survival", "setting": "[2]; Cu 1·11 μg mL^−1 (Ct 1·25 μg mL)", "value": 8, "unit": "h"}, {"measurement": "IC50", "setting": "[3]; Mus musculus, L929 mammalian cell line, cytotoxicity", "value": 50, "unit": "µg/mL"}, {"measurement": "Selectivity", "setting": "[3]; parasite vs L929", "value": "⩾138"}, {"measurement": "time unbound concentration in brain tissue exceeded IC50u on each day", "setting": "[4]", "value": 10, "unit": "h"}, {"measurement": "time unbound concentration in brain tissue exceeded MICu on each day", "setting": "[4]", "value": 4, "unit": "h"}, {"measurement": "unbound AUC0–24 as percentage of the target MICu AUC", "setting": "[4]", "value": "approximately 50%"}]}
